Test results published in patent publication US11446298B2, “Pyrimidine derivatives” (Idorsia Pharmaceuticals Ltd, priority 2017, dated 2022).

Tests used:
Format in all cases: cell-based
[1] = target: T1, EP2 (Homo sapiens, UniProt P43116); assay: hEP2 cAMP Assay (SF295 glioblastoma cells, HTRF cAMP, PGE2 75 nM); conditions: antagonistic activity, PGE2 75 nM (EC80)
T1 construct: SF295 glioblastoma cells express high endogenous EP2 and no EP4; host or cells: SF295 glioblastoma cells
Description: (§1) The antagonistic activities of the compounds of formula (I) on the EP2 and EP4 receptors are also determined in accordance with the following experimental method.
(§2) Human tumor cell lines expressing endogenously either EP4 or EP2 are used and cAMP accumulation in cells upon PGE2 stimulation is monitored. SF295 glioblastoma cells express high endogenous EP2 and no EP4, whereas BT549 breast cancer cells, express high endogenous EP4 levels and very low EP2 levels.
(§3) As a detection method for cAMP the HTRF (homogeneous time resolved fluorescence) Cisbio kit (HTRF cAMP dynamic 2 kit 20′000 tests Cisbio Cat. #62AM4PEC) was used, which is based on a competitive immunoassay using a Cryptate-labeled anti-cAMP antibody and d2-labeled cAMP. Native cAMP produced by cells or unlabeled cAMP (for the standard curve) compete with exogenously added d2-labeled cAMP (acceptor) for binding to monoclonal anti-cAMP-Eu3+Cryptate (donor). A FRET signal (Fluorescence Resonance Energy Transfer) is obtained only if the labeled anti-cAMP antibody binds the d2 labelled cAMP, thus the specific signal (i.e. energy transfer) is inversely proportional to the concentration of cAMP in the standard or sample.
(§4) The SF295 cells (NCI/No. 0503170) are detached from culture dishes with a cell dissociation buffer (Invitrogen, 13151-014), and collected in growing medium (GM: RPM11640 (Invitrogen 21875)/10% FCS, 1% Penicilin/streptomycin). Cells are counted washed and resuspended in assay buffer (AB; HBSS, 20 mM HEPES, 0.2% BSA; 2 mM IBMX). 4′000 cells in 5 μL of AB are seeded per well of a small volume 384 well plate (black with flat bottom, Greiner 784076).
(§5) Stock solutions of test compounds are made at a concentration of 10 mM in DMSO, and serially diluted in DMSO to concentrations required for inhibition dose response curves (tested concentration range 30 μM-0.4 nM; 30 μM-0.015 nM or 1 μM-0.01 nM).
PGE2 (Cayman 14010, stock solution: 75 μM in DMSO) is used as agonist at 75 nM final concentration, corresponding to EC80.
(§6) 2.5 μL of diluted compounds are transferred into the assay plate. Plate is pre-incubated 45 minutes at room temperature. Subsequently, 2.5 μL of PGE2 (final conc. 75 nM) are transferred into the assay plate. Plate is incubated 30 minutes at room temperature. Five μL of each donor (anti-cAMP cryptate) and acceptor (cAMP-d2) are added and the plate is incubated another hour at room temperature in the dark and then read using a BMG LABTECH PHERAstar reader (Excitation: 337 nm, Emission: 620 and 665 nm).
(§7) The obtained Delta F (fluorescence) values (665 nm/620 nM) are converted into % cAMP values using the measurements of the cAMP calibrator provided in the kit. For each compound concentration the percentage of cAMP compared to DMSO control value as average ±STDEV (each concentration is measured in duplicate) is calculated.
(§8) IC50 values and curves are generated with XLfit software (IDBS) using Dose-Response One Site model 203. When compounds were measured multiple times, mean values are given.

[2] = target: T2, EP4 (Homo sapiens, UniProt P35408); assay: hEP4 cAMP Assay (BT549 breast cancer cells, HTRF cAMP, PGE2 6 nM); conditions: antagonistic activity, PGE2 6 nM (EC80)
T2 construct: BT549 breast cancer cells, express high endogenous EP4 levels and very low EP2 levels; host or cells: BT549 breast cancer cells
T2 sequence (P35408 whole entry): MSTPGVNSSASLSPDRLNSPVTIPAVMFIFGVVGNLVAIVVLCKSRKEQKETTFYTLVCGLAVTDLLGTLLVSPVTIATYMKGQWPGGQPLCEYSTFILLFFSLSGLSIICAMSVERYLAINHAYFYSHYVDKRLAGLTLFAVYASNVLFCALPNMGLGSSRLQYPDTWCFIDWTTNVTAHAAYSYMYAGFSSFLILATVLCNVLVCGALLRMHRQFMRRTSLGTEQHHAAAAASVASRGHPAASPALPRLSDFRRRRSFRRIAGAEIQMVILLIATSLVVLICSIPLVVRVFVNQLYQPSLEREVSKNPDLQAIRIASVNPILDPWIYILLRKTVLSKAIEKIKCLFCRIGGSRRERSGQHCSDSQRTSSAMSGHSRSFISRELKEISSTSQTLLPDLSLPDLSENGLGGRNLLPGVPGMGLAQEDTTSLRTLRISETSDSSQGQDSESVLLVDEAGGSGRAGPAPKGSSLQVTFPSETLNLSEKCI
Description: as §1, §2, §3
as §4, with “BT549” for “SF295”, “0507282)” for “0503170)”, “RPMI1640” for “RPM11640”
as §5
PGE2 (Cayman 14010, stock solution: 6 uM in DMSO) is used as agonist at 6 nM final concentration, corresponding to EC80.
as §6, with “6” for “75”, “5” for “Five”
as §7, §8

[3] = target: T3, PTGER2 (EP2) (Homo sapiens, UniProt P43116); assay: hEP2 b-Arrestin Assay (PathHunter HEK 293 PTGER2 b-arrestin cells, PGE2 5 μM); conditions: antagonistic activity, beta-arrestin assay, HEK 293 PTGER2 cells, PGE2 5 μM (EC80); read-out: hEP2 b-arr IC50
T3 construct: host or cells: HEK 293 (PathHunter, stably transfected)
T3 sequence (P43116 whole entry): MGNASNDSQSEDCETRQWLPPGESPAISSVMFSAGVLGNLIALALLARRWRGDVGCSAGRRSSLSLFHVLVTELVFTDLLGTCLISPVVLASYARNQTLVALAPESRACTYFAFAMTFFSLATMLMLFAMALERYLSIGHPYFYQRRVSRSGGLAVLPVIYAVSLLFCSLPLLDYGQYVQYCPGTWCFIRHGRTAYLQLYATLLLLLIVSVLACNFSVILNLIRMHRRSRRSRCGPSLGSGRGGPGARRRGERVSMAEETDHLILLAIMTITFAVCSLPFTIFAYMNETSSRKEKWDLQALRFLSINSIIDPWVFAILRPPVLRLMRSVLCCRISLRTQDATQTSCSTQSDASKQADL
Description: as §1
The assay is using the PathHunter™ HEK 293 PTGER2 and PTGER4 b-arrestin cell lines from DiscoverX. The system is based on the Enzyme Fragment Complementation Technology. Two complementing fragments of the b-galactosidase enzyme are expressed within stably transfected cells. The larger portion of b-gal, termed EA for Enzyme Acceptor, is fused to the C-terminus of b-arrestin 2. The smaller fragment, termed ProLink™ tag, is fused to PTGER2 (EP2) or PTRGER4 (EP4) at the C-terminus. Upon activation, b-arrestin is recruited which forces the interaction of ProLink and EA, allowing complementation of the two fragments of b-gal and the formation of a functional enzyme which is capable of hydrolysing the substrate and generating a chemiluminescent signal.
The HEK 293 PTGER2 b-arrestin cells (DiscoverX 93-021-4C1) are detached from culture dishes with a cell dissociation buffer (Invitrogen, 13151-014), and collected in growing medium (GM: DMEM+Glutamax-I (Invitrogen 32430)/10% FCS, 1% Penicilin/streptomycin). 5000 cells per well of a 384 well plate (white with white bottom Greiner 781080) are seeded in 20 μl per well of GM. Plate is incubated at 37° C., 5% CO2 for 24 hours.
Stock solutions of test compounds are made at a concentration of 10 mM in DMSO, and serially diluted in DMSO to concentrations required for inhibition dose response curves (tested concentration range 10 μM-2 nM or 1 μM-0.2 nM).
PGE2 (Cayman 14010, stock solution: 10 mM in DMSO) is used as agonist at 5 μM final concentration, corresponding to EC80.
Five microliters of diluted compounds are transferred into the assay plate. Plate is pre-incubated 15 minutes at 37° C. Then five microliters of PGE2 (final conc. 5 μM) are transferred into the assay plate. Plate is incubated 120 minutes at 37° C.
PathHunter Glo Detection Kit components are thawed and mix according to manufacturer's instructions: 1 part Galacton Star Substrate with 5 parts Emerald II™ Solution, and 19 parts of PathHunter Cell Assay Buffer, respectively. Twelve μl of reagent are transferred to the assay plate and incubate for 1 hour at room temperature in the dark. Luminescence counts are read on a BMG Fluostar Optima reader according to manufacturer's instructions.
For each compound concentration calculate of the percentage of activity compared to DMSO control value as average ±STDEV. (each concentration is measured in duplicate)
as §8

T1 sequence (P43116 whole entry): as above

Compound	IC50 [1] [nM]	IC50 [2] [nM]	IC50 [3] [nM]
CCOc1cc(-c2cc(NCCc3ccc(F)c4ccccc34)ncn2)ccc1C(=O)O [Example 19, 2-Ethoxy-4-{6-[2-(4-fluoro-naphthalen-1-yl)-ethylamino]-pyrimidin-4-yl}-benzoic acid]	93	646	129
COc1cc(-c2cc(NCCc3c(OC)ccc4ncccc34)ncn2)sc1C1(O)COC1 [Example 89, 3-(3-Methoxy-5-{6-[2-(6-methoxy-quinolin-5-yl)-ethylamino]-pyrimidin-4-yl}-thiophen-2-yl)-oxetan-3-ol]	197	878	178
CCCCOc1cc(-c2cc(NCCc3c(OC)ccc4ccccc34)ncn2)cc(F)c1C(=O)O [Example 124, 2-Butoxy-6-fluoro-4-{6-[2-(2-methoxy-naphthalen-1-yl)-ethylamino]-pyrimidin-4-yl}-benzoic acid]	100	446	35
CCOc1cc(-c2cc(NCCc3c(OC)ccc4ncccc34)ncn2)ccc1O [Example 90, 2-Ethoxy-4-{6-[2-(6-methoxy-quinolin-5-yl)-ethylamino]-pyrimidin-4-yl}-phenol]	58	351	36
Cc1ccc2c(cnn2C)c1CCNc1cc(-c2ccc3ncccc3c2)ncn1 [Example 114, [2-(1,5-Dimethyl-1H-indazol-4-yl)-ethyl]-(6-quinolin-6-yl-pyrimidin-4-yl)-amine]	35	492	224
Cc1ccc2cnccc2c1CCNc1cc(-c2ccc(C(=O)O)c(OC3CCC3)c2)ncn1 [Example 84, 2-Cyclobutoxy-4-{6-[2-(6-methyl-isoquinolin-5-yl)-ethylamino]-pyrimidin-4-yl}-benzoic acid]	179	989	149
COc1ccc2ncccc2c1CCNc1cc(-c2ccc(-c3cc(O)no3)cc2)ncn1 [Example 83, 5-(4-{6-[2-(6-Methoxy-quinolin-5-yl)-ethylamino]-pyrimidin-4-yl}-phenyl)-isoxazol-3-ol]	89	428	119
CCOc1cc(-c2cc(NCCc3c(OC)ccc4ccccc34)ncn2)ccc1C(=O)O [Example 3, 2-Ethoxy-4-{6-[2-(2-methoxy-naphthalen-1-yl)-ethylamino]-pyrimidin-4-yl}-benzoic acid]	11	292	17
CCOc1cc(-c2cc(NCCc3cccc4cc(C)[nH]c34)ncn2)sc1C(=O)O [Example 37, 3-Ethoxy-5-{6-[2-(2-methyl-1H-indol-7-yl)-ethylamino]-pyrimidin-4-yl}-thiophene-2-carboxylic acid]	53	596	126
CCOc1cc(-c2cc(NCCc3c(C)ccc4ccccc34)ncn2)ccc1OCC(=O)O [Example 48, (2-Ethoxy-4-{6-[2-(2-methyl-naphthalen-1-yl)-ethylamino]-pyrimidin-4-yl}-phenoxy)-acetic acid]	147	729	22
CCOc1cc(-c2cc(NCCc3c(C)ccc4c3cnn4C)ncn2)ccc1O [Example 111, 4-{6-[2-(1,5-Dimethyl-1H-indazol-4-yl)-ethylamino]-pyrimidin-4-yl}-2-ethoxy-phenol]	171	855	50
CCCc1cc(-c2cc(NCCc3c(OC)ccc4ccccc34)ncn2)cc(F)c1C(=O)O [Example 123, 2-Fluoro-4-{6-[2-(2-methoxy-naphthalen-1-yl)-ethylamino]-pyrimidin-4-yl}-6-propyl-benzoic acid]	29	550	31
COc1ccc2ncccc2c1CCNc1cc(-c2ccc(C(=O)O)c(OC3CCC3)c2)ncn1 [Example 64, 2-Cyclobutoxy-4-{6-[2-(6-methoxy-quinolin-5-yl)-ethylamino]-pyrimidin-4-yl}-benzoic acid]	80	872	106
COc1ccc2c(c1CCNc1cc(-c3ccc(C(=O)O)c(OC4CCC4)c3)ncn1)OCO2 [Example 43, 2-Cyclobutoxy-4-{6-[2-(5-methoxy-benzo[1,3]dioxol-4-yl)-ethylamino]-pyrimidin-4-yl}-benzoic acid]	252	797	–
CCOc1cc(-c2cc(NCCc3c(Br)ccc4ccccc34)ncn2)sc1C(=O)O [Example 10, 5-{6-[2-(2-Bromo-naphthalen-1-yl)-ethylamino]-pyrimidin-4-yl}-3-ethoxy-thiophene-2-carboxylic acid]	5	22	–
CCOc1cc(-c2cc(NCCc3c(C)c(C)cc4ccccc34)ncn2)ccc1C(=O)O [Example 11, 4-{6-[2-(2,3-Dimethyl-naphthalen-1-yl)-ethylamino]-pyrimidin-4-yl}-2-ethoxy-benzoic acid]	261	885	–
CCOc1cc(-c2cc(NCCc3cccc4ccccc34)ncn2)ccc1OCC(=O)O [Example 77]	418	403	–
CCOc1cc(-c2cc(NCCc3cccc4sccc34)ncn2)ccc1OCC(=O)O [Example 109]	726	452	–
